Assay results: patent US11407750B2, “Derivatives of an FGFR inhibitor” (Incyte Corporation, priority 2019, dated 2022)
Where two headings read alike, the source gives them in different places.

What was measured:
FGFR1 = FGFR1 (Homo sapiens (Human), UniProt P11362); test: FGFR Enzymatic Assay (FRET peptide phosphorylation), FGFR1; assay type: biochemical
Method: (§1) The inhibitor potency of the exemplified compounds was determined in an enzyme discontinuous assay that measures peptide phosphorylation using FRET measurements to detect product formation. Inhibitors were serially diluted in DMSO and a volume of 0.2 μL was transferred to the wells of a 384-well plate. For the isoforms of FGFR (−1, −2, −3 wild-type and mutant isoforms, −4) including phosphorylated and un-phosphorylated proteins, a 5 μL/well volume of enzyme diluted in assay buffer (50 mM HEPES, 10 mM MgCl2, 1 mM EGTA, 0.01% Tween-20, 5 mM DTT, pH 7.5) was added to the plate and pre-incubated with inhibitor for 5 to 15 minutes at ambient temperature. Appropriate controls (enzyme blank and enzyme with no inhibitor) were included on the plate. The reaction was initiated by the addition of a 5 μL/well volume containing both biotinylated […] […] The ATP Km values were pre-determined for each FGFR isoform in a separate series of experiments. […] The plate was allowed to equilibrate for ˜10 minutes at ambient temperature before scanning on a PheraStar plate reader (BMG Labtech) instrument.
(§2) Either GraphPad prism or XLfit was used to analyze the data. The IC50 values were derived by fitting the data to a four parameter logistic equation producing a sigmoidal dose-response curve with a variable Hill coefficient. Prism equation: Y=Bottom+(Top−Bottom)/(1+10^((Log IC50−X)*Hill slope)); […]

FGFR2 = FGFR2 (Homo sapiens (Human), UniProt P21802); test: FGFR Enzymatic Assay (FRET peptide phosphorylation), FGFR2; assay type: biochemical
FGFR2, sequence (P21802 22-821): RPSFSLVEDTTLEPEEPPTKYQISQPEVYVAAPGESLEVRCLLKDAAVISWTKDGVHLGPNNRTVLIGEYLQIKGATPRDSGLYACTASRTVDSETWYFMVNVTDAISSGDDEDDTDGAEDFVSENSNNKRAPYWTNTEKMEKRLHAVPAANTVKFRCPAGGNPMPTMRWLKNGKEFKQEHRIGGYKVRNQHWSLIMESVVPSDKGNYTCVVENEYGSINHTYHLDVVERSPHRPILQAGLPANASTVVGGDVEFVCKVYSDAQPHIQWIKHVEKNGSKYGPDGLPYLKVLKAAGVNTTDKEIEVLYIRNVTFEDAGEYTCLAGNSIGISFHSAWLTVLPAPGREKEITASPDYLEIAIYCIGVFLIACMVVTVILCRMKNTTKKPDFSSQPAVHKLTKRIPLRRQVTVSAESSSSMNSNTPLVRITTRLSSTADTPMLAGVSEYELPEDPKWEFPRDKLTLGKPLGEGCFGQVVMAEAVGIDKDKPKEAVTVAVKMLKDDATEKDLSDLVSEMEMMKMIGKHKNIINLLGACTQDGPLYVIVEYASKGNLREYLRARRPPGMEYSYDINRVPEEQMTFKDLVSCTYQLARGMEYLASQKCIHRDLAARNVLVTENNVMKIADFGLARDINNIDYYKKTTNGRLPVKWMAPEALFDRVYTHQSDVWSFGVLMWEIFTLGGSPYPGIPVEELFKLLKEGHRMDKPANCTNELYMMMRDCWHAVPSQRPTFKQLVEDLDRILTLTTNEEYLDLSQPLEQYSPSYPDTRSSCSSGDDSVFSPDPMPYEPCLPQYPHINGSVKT
Method: as §1, §2

FGFR3 = FGFR3 (Homo sapiens (Human), UniProt P22607); test: FGFR Enzymatic Assay (FRET peptide phosphorylation), FGFR3; assay type: biochemical
FGFR3, sequence (P22607 23-806): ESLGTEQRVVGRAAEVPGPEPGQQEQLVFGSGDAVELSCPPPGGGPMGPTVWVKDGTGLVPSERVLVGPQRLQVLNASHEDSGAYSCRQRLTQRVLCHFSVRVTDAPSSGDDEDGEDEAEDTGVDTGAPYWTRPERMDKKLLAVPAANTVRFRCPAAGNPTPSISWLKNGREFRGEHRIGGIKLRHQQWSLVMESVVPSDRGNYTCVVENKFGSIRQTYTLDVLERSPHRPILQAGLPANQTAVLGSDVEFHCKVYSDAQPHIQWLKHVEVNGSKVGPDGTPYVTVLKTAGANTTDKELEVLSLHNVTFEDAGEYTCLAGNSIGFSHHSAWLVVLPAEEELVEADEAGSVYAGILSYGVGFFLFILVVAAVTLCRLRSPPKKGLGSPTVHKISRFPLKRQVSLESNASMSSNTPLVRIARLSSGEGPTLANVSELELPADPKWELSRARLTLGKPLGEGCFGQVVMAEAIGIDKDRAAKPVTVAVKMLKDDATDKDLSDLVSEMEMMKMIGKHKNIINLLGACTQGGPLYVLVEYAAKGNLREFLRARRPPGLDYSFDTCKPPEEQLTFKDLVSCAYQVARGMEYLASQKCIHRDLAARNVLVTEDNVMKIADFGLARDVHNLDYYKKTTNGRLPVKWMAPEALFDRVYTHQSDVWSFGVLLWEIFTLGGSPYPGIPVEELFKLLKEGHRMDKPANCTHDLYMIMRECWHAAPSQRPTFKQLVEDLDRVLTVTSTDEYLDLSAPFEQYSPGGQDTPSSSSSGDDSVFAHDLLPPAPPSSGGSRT
Method: as §1, §2

[1] = molecular target: tyrosine-phosphorylated Fibroblast Growth Factor Receptor 2 alpha (FGFR2α) in KATO III cells (Homo sapiens, UniProt P21802); test: KATOIII Whole Blood pFGFR2α ELISA Assay; assay type: cell-based
tyrosine-phosphorylated Fibroblast Growth Factor Receptor 2 alpha (FGFR2α) in KATO III cells, sequence (P21802 22-821 limits assumed): as the sequence (P21802 22-821) above
Method: To measure tyrosine-phosphorylated Fibroblast Growth Factor Receptor 2 alpha (FGFR2a) in KATO III spiked whole blood assay, KATO III cells were purchased from ATCC and maintained in Iscove's medium with 20% FBS (Gibco/Life Technologies). […] 50 uL of the cells were then spiked into a 96-deep well 2 ml polypropylene assay block (Costar) in the presence or absence of a concentration range of test compounds and 300 ul human heparinized whole blood (Biological Specialty Corp, Colmar Pa.). After 4 hours incubation in 37° C., the red cells were lysed using Qiagen EL buffer and the cell lysates were resuspended in lysis buffer (Cell Signaling) containing standard protease inhibitor cocktail (Calbiochem/EMD) and PMSF (Sigma) for 30 minutes ice. […] IC50 determination was performed by fitting the curve of inhibitor percent inhibition versus the log of the inhibitor concentration using the GraphPad Prism 5.0 software.

[2] = Permeability in Caco-2 cells (absorptive direction A-B); assay type: in vitro ADME; conditions: human, Caco-2, 4% BSA in receiver, read-out: CACO2 Pm
Method: (§3) Caco-2 cells were grown in 96-well transwell plates with a seeding density of 14000 cell/well in DMEM medium. To determine the permeability in the absorptive direction (A-B), the test compound in HBSS was added to the donor compartment (apical side), and 4% BSA in HBSS was added into the receiver compartment (basolateral side). To determine whether a compound is a P-gp substrate, permeability values were measured in both the A-B and B-A directions (bidirectional transport assay) in the absence of 4% BSA. Digoxin and cyclosporine A were included as positive controls for P-gp substrate and inhibitor, respectively, to ensure the functionality of P-gp in the bidirectional transport assay. The test compound at various concentrations was added in the donor compartment (apical side for A-B transport and basolateral side for B-A transport) while HBSS solution was added in the receiver compartment (basolateral side for A-B transport and apical side for B-A transport). For permeability studies in the A-B direction, the donor volume was 0.075 mL, and the receiver volume was 0.25 mL. For permeability studies in the B-A direction, the donor volume was 0.25 mL, and the receiver volume was 0.075 mL. The incubation was carried out at 37° C. for 120 minutes. Transepithelial electrical resistance (TEER) was measured before and after the 120 minutes incubation to ensure the integrity of the cell monolayers. At the end of the incubation period, samples were removed from both the donor and receiver sides and mixed with acetonitrile for protein precipitation. The supernatants were collected after centrifugation for analysis using LC-MS/MS method.
(§4) Permeability coefficient (Papp) values from Caco-2 studies were determined using the following equation: Papp(cm/s)=(F*VD)/(SA*MD) where the flux rate (F, mass/time) was calculated from the slope of cumulative amounts of compound of interest on the receiver side, SA is the surface area of the cell membrane, VD is the donor volume, and MD is the initial amount of the solution in the donor chamber.

Caco-2 cells = test: as above; assay type: in vitro ADME; conditions: 4% BSA in receiver
Method: as §3, §4

P-gp = P-gp (Homo sapiens (Human), UniProt P08183); test: Bidirectional transport across Caco-2 monolayers (P-gp mediated transport); assay type: in vitro ADME; conditions: for Papp A→B at 120 min, 3 μM / Papp B→A at 120 min, 3 μM / efflux ratio at 120 min, 3 μM / Papp A→B at 120 min, 30 μM / Papp B→A at 120 min, 30 μM / efflux ratio at 120 min, 30 μM / Papp A→B at 120 min, 1 μM / Papp B→A at 120 min, 1 μM: human; for efflux ratio at 120 min, 3 μM / efflux ratio at 120 min, 30 μM: read-out: Efflux Ratio (B-A/A-B)
P-gp, sequence (P08183 whole entry): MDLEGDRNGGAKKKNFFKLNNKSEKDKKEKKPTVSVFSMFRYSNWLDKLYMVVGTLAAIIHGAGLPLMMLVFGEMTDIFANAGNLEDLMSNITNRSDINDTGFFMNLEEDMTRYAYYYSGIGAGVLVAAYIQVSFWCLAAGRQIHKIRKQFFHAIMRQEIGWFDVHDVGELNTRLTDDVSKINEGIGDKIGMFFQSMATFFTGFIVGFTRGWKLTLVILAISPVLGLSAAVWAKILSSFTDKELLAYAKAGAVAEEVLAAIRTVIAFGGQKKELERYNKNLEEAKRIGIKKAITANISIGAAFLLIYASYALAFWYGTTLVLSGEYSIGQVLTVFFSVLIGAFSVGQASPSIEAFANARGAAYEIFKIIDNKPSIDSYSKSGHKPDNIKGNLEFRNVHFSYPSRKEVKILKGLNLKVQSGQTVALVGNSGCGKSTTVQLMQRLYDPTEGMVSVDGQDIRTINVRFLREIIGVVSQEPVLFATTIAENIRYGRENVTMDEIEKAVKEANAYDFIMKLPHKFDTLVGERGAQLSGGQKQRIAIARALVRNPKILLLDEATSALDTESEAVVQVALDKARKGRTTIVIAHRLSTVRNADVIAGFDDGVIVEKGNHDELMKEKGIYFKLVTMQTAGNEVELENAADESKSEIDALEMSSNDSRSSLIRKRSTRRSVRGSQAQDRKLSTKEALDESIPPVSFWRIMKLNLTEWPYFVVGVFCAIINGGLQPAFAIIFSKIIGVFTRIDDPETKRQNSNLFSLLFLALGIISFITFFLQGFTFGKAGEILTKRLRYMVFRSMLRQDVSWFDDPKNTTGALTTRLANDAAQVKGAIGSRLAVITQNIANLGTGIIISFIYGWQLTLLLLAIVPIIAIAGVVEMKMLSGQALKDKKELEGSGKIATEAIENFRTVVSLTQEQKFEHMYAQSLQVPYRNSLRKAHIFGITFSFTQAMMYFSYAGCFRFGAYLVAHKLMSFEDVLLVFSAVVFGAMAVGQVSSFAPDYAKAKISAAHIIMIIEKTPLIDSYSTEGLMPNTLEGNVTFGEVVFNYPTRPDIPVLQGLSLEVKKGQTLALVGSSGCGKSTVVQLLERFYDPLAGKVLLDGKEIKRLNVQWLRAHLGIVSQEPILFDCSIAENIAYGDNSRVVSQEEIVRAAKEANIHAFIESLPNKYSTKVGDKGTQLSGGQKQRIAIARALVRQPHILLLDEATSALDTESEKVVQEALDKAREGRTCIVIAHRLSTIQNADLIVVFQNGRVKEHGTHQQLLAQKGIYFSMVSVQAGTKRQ
Method: as §3, §4
The efflux ratio from Caco-2 studies was calculated as the ratio of the Papp measured in the B-A direction divided by the Papp in the A-B direction.

[3] = Compound 1 human absorption, metabolism, and excretion study (single oral dose of [14C] Compound 1); assay type: in vivo; conditions: for % of Administered Dose in Feces Samples, Sum: sum 0-144 h; for % Total Radioactivity Pool of Hamilton Pools (0-24 h): blood/plasma samples
Method: An open label-study was conducted, assessing the mass balance, pharmacokinetics, and metabolite profiles of a single oral dose of [14C] Compound 1:
Blood/plasma, urine, and feces were collected from participants for 4 to 10 days after administration.
Human discharge criteria includes that a minimum of 90% of the administered radioactive dose is recovered; and that less than or equal to 1% of the administered radioactive dose is recovered in excreta (urine and feces combined) in 2 consecutive 24-hour urine and fecal collection samples.

[4] = Caco-2, with cyclosporine A (CSA) 10 μM, with CSA 10 μM
[5] = Caco-2, with cyclosporine A (CSA) 5 μM, with CSA 5 μM
[6] = radioactive dose, single oral dose, healthy male subjects

FGFR1, sequence (P11362 22-822): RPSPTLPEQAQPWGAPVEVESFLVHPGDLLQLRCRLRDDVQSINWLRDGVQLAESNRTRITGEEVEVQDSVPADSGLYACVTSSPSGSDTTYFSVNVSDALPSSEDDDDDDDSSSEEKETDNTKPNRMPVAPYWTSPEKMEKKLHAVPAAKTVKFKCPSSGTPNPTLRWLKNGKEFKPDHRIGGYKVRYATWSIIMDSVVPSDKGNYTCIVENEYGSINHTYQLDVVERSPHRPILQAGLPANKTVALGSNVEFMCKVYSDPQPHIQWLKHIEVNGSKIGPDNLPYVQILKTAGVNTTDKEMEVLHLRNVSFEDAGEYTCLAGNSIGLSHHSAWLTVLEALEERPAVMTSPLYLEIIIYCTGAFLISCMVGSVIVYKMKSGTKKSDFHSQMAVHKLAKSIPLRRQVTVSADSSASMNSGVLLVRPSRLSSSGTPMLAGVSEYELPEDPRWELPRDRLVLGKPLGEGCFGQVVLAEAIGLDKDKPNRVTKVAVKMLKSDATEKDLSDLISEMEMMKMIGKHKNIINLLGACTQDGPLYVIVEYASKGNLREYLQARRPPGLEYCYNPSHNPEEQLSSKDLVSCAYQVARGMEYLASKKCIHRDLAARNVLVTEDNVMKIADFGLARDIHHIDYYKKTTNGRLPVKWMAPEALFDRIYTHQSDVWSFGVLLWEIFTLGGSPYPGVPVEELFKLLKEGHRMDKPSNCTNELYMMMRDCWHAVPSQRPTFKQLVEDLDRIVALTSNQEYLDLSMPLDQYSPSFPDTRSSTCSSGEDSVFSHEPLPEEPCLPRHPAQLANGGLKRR

SMILES	Papp A→B at 120 min [2] [×10⁻⁶ cm/s]	CACO2 Pm (Caco-2 cells) [×10E−6 cm/s]	Papp A→B at 120 min, 30 μM (P-gp; Caco-2, no inhibitor) [×10⁻⁶ cm/s]	Papp B→A at 120 min, 30 μM (P-gp; Caco-2, no inhibitor) [×10⁻⁶ cm/s]	% of Administered Dose in Feces Samples ([3]; 0-24 h) [%]	% of Administered Dose in Feces Samples ([3]; 24-48 h) [%]	% of Administered Dose in Feces Samples ([3]; 48-72 h) [%]	% of Administered Dose in Feces Samples ([3]; 72-96 h) [%]	% of Administered Dose in Feces Samples ([3]; 96-120 h) [%]	% of Administered Dose in Feces Samples ([3]; 120-144 h) [%]	% of Administered Dose in Feces Samples, Sum [3] [%]	IC50 (FGFR1) [nM]	IC50 (FGFR2) [nM]	IC50 (FGFR3) [nM]	% Total Radioactivity Pool of Hamilton Pools (0-24 h) ([3]; 0-24 h) [%]	other results
CCN1C(=O)N(c2c(F)c(O)cc(OC)c2F)Cc2cnc3[nH]c(CN4CCOCC4)cc3c21 [Compound 2, 3-(2,6-difluoro-3-hydroxy-5-methoxyphenyl)-1-ethyl-8-(morpholinomethyl)-1,3,4,7-tetrahydro-2H-pyrrolo[3′,2′:5,6]pyrido[4,3-d]pyrimidin-2-one]	0.5	0.5	0.41 ± 0.07	7.7 ± 2.8	<0.1	11.4	14.5	14.5	1.6	2.9	44.4	< 10	< 10	< 10		IC50 ([1]; KATO III cells spiked into human whole blood, 4 hours; read-out: FGFR2_WB_ELISA-KATOIII IC50): 50 to 250 nM; substrate for Pgp transport (P-gp; comparison of efflux ratios at 30 μM): more effective substrate for Pgp transport than Compound 1; Papp A→B at 120 min, 3 μM (P-gp; [4]): 0.65 ± 0.11 ×10⁻⁶ cm/s; Papp B→A at 120 min, 3 μM (P-gp; [4]): 2.2 ± 0.49 ×10⁻⁶ cm/s; efflux ratio at 120 min, 3 μM (P-gp; [4]): 3.3 ± 1.2; Papp A→B at 120 min, 30 μM (P-gp; [4]): 2 ± 0.33 ×10⁻⁶ cm/s; Papp B→A at 120 min, 30 μM (P-gp; [4]): 3.1 ± 1.2 ×10⁻⁶ cm/s; efflux ratio at 120 min, 30 μM (P-gp; [4]): 1.5 ± 0.59; Papp A→B at 120 min, 3 μM (P-gp; Caco-2, no inhibitor): 0.43 ± 0.15 ×10⁻⁶ cm/s; Papp B→A at 120 min, 3 μM (P-gp; Caco-2, no inhibitor): 11 ± 8 ×10⁻⁶ cm/s; efflux ratio at 120 min, 3 μM (P-gp; Caco-2, no inhibitor): 25 ± 11; efflux ratio at 120 min, 30 μM (P-gp; Caco-2, no inhibitor): 19
CCN1C(=O)N(c2c(F)c(OC)cc(OC)c2F)Cc2cnc3[nH]c(CN4CCOCC4)cc3c21 [Compound 1, 3-(2,6-difluoro-3,5-dimethoxyphenyl)-1-ethyl-8-(morpholin-4-ylmethyl)-1,3,4,7-tetrahydro-2H-pyrrolo[3′,2′:5,6]pyrido[4,3-d]pyrimidin-2-one]	11	11	21 ± 1.1	13 ± 1.6	0.1	0.6	0.4	0.2	0.0	0.0	1.4				64.5	Papp A→B at 120 min, 1 μM (P-gp; [5]): 12 ± 2.3 ×10⁻⁶ cm/s; Papp B→A at 120 min, 1 μM (P-gp; [5]): 9 ± 1.8 ×10⁻⁶ cm/s; Papp A→B at 120 min, 30 μM (P-gp; [5]): 18 ± 0.75 ×10⁻⁶ cm/s; Papp B→A at 120 min, 30 μM (P-gp; [5]): 12 ± 1.3 ×10⁻⁶ cm/s; Papp A→B at 120 min, 1 μM (P-gp; Caco-2, no inhibitor): 7.3 ± 1.6 ×10⁻⁶ cm/s; Papp B→A at 120 min, 1 μM (P-gp; Caco-2, no inhibitor): 11 ± 0.95 ×10⁻⁶ cm/s; overall recovery of radioactivity in urine and feces ([3]; over the 240 hour study): 95.1%; time of peak total radioactivity and plasma Compound 1 concentrations ([3]; post dose, single oral dose, fasted): about 2.0 hours; dose recovered in feces [3, 6]: 82.4%; dose recovered in urine [3, 6]: 12.6%; % of Administered Dose in Urine Sample ([3]; urine, 0-6 h): 0.5%; % of Administered Dose in Urine Sample ([3]; urine, 6-12 h): 0.2%; % of Administered Dose in Urine Sample ([3]; urine, 12-24 h): 0.2%; % of Administered Dose in Urine Sample ([3]; urine, 24-48 h): 0.2%; % of Administered Dose in Urine Sample, Sum ([3]; urine, sum 0-48 h): 1.0%
CCN1C(=O)N(c2c(F)c(O)cc(O)c2F)Cc2cnc3[nH]c(CN4CCOCC4)cc3c21 [Compound 4, 3-(2,6-difluoro-3,5-dihydroxyphenyl)-1-ethyl-8-(morpholinomethyl)-1,3,4,7-tetrahydro-2H-pyrrolo[3′,2′:5,6]pyrido[4,3-d]pyrimidin-2-one]						0.5	2.3	1.1	0.2	0.4	4.5					
CCN1C(=O)N(c2c(F)c(OC)cc(OC)c2F)C(O)c2cnc3[nH]c(CN4CCOCC4)cc3c21 (centres unmarked) [Compound 3, 3-(2,6-difluoro-3,5-dimethoxyphenyl)-1-ethyl-4-hydroxy-8-(morpholinomethyl)-1,3,4,7-tetrahydro-2H-pyrrolo[3′,2′:5,6]pyrido[4,3-d]pyrimidin-2-one]												10 to 100	10 to 100	100 to 500	6.0	IC50 ([1]; read-out: FGFR2_WB_ELISA-KATOIII IC50; KATO III cells spiked into human whole blood, 4 hours): 1000 to 3000 nM

Further lines, with some results ahead:

Papp A→B at 120 min [2] [×10⁻⁶ cm/s]	CACO2 Pm (Caco-2 cells) [×10E−6 cm/s]	Papp A→B at 120 min, 30 μM (P-gp; Caco-2, no inhibitor) [×10⁻⁶ cm/s]	Papp B→A at 120 min, 30 μM (P-gp; Caco-2, no inhibitor) [×10⁻⁶ cm/s]	% of Administered Dose in Feces Samples ([3]; 0-24 h) [%]	% of Administered Dose in Feces Samples ([3]; 24-48 h) [%]	% of Administered Dose in Feces Samples ([3]; 48-72 h) [%]	% of Administered Dose in Feces Samples ([3]; 72-96 h) [%]	% of Administered Dose in Feces Samples ([3]; 96-120 h) [%]	% of Administered Dose in Feces Samples ([3]; 120-144 h) [%]	% of Administered Dose in Feces Samples, Sum [3] [%]	SMILES	IC50 (FGFR1) [nM]	IC50 (FGFR2) [nM]	IC50 (FGFR3) [nM]	% Total Radioactivity Pool of Hamilton Pools (0-24 h) ([3]; 0-24 h) [%]	other results
16											[2H]C([2H])([2H])Oc1cc(OC([2H])([2H])[2H])c(F)c(N2Cc3cnc4[nH]c(CN5CCOCC5)cc4c3N(CC)C2=O)c1F [Compound 6, 3-(2,6-difluoro-3,5-bis(methoxy-d3)phenyl)-1-ethyl-8-(morpholinomethyl)-1,3,4,7-tetrahydro-2H-pyrrolo[3′,2′:5,6]pyrido[4,3-d]pyrimidin-2-one]					
					0.4	0.6	0.5	0.0	0.1	1.6	CCN1C(=O)N(c2c(F)c(O)cc(OC)c2F)Cc2cnc3[nH]c(C(=O)O)cc3c21 [Compound 5, 3-(2,6-difluoro-3-hydroxy-5-methoxyphenyl)-1-ethyl-2-oxo-2,3,4,7-tetrahydro-1H-pyrrolo[3′,2′: 5,6]pyrido[4,3-d]pyrimidine-8-carboxylic acid]					
